Laboratory results taken from publication PMC12031583 (Toxins, 2025).
Several values for one entry are separate records, joined by “and”; a condition that tells them apart may be missing. Identical values can stand only once. Like-named read-outs stand apart in the source and are kept apart here.

How the values were obtained:
casein (CSN, bovine) [1] = type: binding; settings: pH 6.8
[2] = target: T1, β-lactoglobulin (LG, bovine) (Bos taurus, UniProt P02754); test: biochemical; type: binding
[3] = target: T2, α-lactalbumin (LA, bovine) (Bos taurus, UniProt P00711); test: biochemical; type: binding
T2 sequence (P00711 20-142 limits assumed): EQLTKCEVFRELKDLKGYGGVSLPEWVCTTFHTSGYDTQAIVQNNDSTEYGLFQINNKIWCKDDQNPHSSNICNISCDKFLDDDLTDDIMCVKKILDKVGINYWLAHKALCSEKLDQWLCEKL

[4] = target: T2, α-lactalbumin (LA, bovine); type: binding; settings: pH 6.8
[5] = target: T3, α1-acid glycoprotein (AGP) (Homo sapiens, UniProt P02763); settings: for effect on fluorescence emission signal of AGP / logK FL Quenching: pH 7.4
T3 sequence (P02763 19-201 limits assumed): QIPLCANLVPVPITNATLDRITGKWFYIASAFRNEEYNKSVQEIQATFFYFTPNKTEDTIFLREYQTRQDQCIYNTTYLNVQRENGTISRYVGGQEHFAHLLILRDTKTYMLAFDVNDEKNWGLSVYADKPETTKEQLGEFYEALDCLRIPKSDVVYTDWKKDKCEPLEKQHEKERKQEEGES

[6] = target: T4, bovine serum albumin (BSA) (Bos taurus, UniProt P02769)
T4 sequence (P02769 25-607 limits assumed): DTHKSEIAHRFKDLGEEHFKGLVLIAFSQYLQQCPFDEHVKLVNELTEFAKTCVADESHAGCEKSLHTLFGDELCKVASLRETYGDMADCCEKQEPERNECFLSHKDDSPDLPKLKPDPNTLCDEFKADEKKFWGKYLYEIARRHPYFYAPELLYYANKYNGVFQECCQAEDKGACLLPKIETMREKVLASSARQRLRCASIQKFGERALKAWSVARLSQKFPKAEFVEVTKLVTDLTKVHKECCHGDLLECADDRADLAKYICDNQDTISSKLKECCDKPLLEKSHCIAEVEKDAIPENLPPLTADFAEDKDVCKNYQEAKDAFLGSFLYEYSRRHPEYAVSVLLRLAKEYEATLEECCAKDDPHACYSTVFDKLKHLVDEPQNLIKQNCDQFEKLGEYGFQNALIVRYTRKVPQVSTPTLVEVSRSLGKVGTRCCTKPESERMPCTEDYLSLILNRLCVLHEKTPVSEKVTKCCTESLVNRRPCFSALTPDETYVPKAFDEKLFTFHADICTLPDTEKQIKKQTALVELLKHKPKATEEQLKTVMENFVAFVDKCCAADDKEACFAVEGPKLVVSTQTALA

[7] = target: T3, α1-acid glycoprotein (AGP); test: in vitro
[8] = target: T3, α1-acid glycoprotein (AGP); test: in vitro; remark: listed apart in the source
[9] = target: T3, α1-acid glycoprotein (AGP); test: in vitro; settings: pH 7.4
[10] = tested on: human serum albumin (HSA); settings: cited from earlier work
[11] = target: T4, bovine serum albumin (BSA); settings: cited from earlier work
[12] = target: T4, bovine serum albumin (BSA); test: biochemical; settings: logK BSA
casein (CSN, bovine) [13] = type: binding; settings: pH 6.8; remark: listed apart in the source
[14] = target: T3, α1-acid glycoprotein (AGP); type: binding
[15] = target: T3, α1-acid glycoprotein (AGP); settings: for logK FL Enhancement: pH 7.4
[16] = target: T3, α1-acid glycoprotein (AGP); settings: pH 7.4
[17] = target: T1, β-lactoglobulin (LG, bovine); type: binding; settings: pH 6.8

T1 sequence (P02754 17-178 limits assumed): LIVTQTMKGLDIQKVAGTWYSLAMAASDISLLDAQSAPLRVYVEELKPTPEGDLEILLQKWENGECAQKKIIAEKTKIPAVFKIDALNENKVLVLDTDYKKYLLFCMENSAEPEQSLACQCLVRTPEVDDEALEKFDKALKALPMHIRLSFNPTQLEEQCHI

Q: With C[C@H]1CCCC(=O)CCC/C=C/c2cc(O)cc(O)c2C(=O)O1 [ZEN, zearalenone] as the compound, how does the “logK CSN” value (casein (CSN, bovine) [1]) read?
A: The value was 3.48 ± 0.01.

Q: And the Kd [2]?
A: The Kd was 891 µM.

Q: And the Kd [3]?
A: The Kd was 1620 µM.

Q: And the “quenching effect on fluorescence emission signal of LA” value (“quenching effect” for short) [4]?
A: Its value is “slight”.

Q: And the “effect on fluorescence emission signal of AGP” value (“effect … of AGP” for short) [5]?
A: Its value is “larger, concentration-dependent decreases”.

Q: And the “fold higher affinity (binding constant) to BSA vs CSN” value (“fold higher affinity … vs CSN” for short) ([6]; bovine, ultracentrifugation, pH 6.8)?
A: The value was “approximately 20 fold”.

Q: What about the Kd ([7]; pH 7.4, logK FL Quenching) of the same compound?
A: The Kd was 1.26 µM.

Q: What about the Kd ([7]; pH 7.4, logK ± SEM 1. (FL quenching)) of the same compound?
A: Its Kd is 1.35 µM.

Q: And the Kd ([7]; pH 7.4, logK ± SEM 2. (FL quenching))?
A: The Kd was 1.45 µM.

Q: What about the Kd ([7]; pH 7.4, logK ± SEM 3. (FL quenching)) of the same compound?
A: Its Kd is 1 µM.

Q: And the Kd ([8]; pH 7.4, logK FL Enhancement)?
A: Its Kd is 0.525 µM.

Q: And the Kd ([8]; pH 7.4, logK ± SEM 1. (FL enhancement))?
A: Its Kd is 0.661 µM.

Q: And the Kd ([8]; pH 7.4, logK ± SEM 2. (FL enhancement))?
A: Its Kd is 0.407 µM.

Q: And the Kd ([8]; pH 7.4, logK ± SEM 3. (FL enhancement))?
A: The Kd was 0.55 µM.

Q: And the Kd [9]?
A: The Kd was 0.372 µM.

Q: And the “logK of complex with HSA” value [10]?
A: Its value is 5.1.

Q: And the “logK of ZEN–BSA and α-ZEL–BSA complexes” value [11]?
A: Its value is 4.8.

Q: What about the Kd [12] of the same compound?
A: The Kd was 15.8 µM and 16.2 µM.

Q: What does the source list for aflatoxin B1 [AFB1]?
A: logK CSN (casein (CSN, bovine) [1]): 3.3 and 3.34 ± 0.03; effect of LG on mycotoxin level (free fraction) in supernatant ([2]; pH 6.8): did not modify; effect of LA on mycotoxin level (free fraction) in supernatant ([3]; pH 6.8): did not modify; effect on fluorescence emission signal of CSN (casein (CSN, bovine) [13]): slight decreases; quenching effect on fluorescence emission signal of LA [4]: slight; effect on fluorescence emission signal of AGP [5]: no or only minor decreases; logK BSA ([6]; pH 6.8): 4.1 and 4.11 ± 0.02; logK of AFB1–BSA [11]: ≈ 4.5

Q: For C[C@H]1CCC[C@@H](O)CCC/C=C/c2cc(O)cc(O)c2C(=O)O1 [β-ZEL, β-zearalenol], which “binding constant (K) of mycotoxin–AGP complex” value [14] is on record?
A: Its value is roughly 600000 L/mol.

Q: And the “fold higher affinity to AGP compared to HSA” value [14]?
A: Its value is roughly 30 fold.

Q: And the “logK ± SEM 1. (FL quenching)” value [5]?
A: The value was 5.76 ± 0.06.

Q: What about the “logK ± SEM 2. (FL quenching)” value [5] of the same compound?
A: The value was 5.82 ± 0.09.

Q: And the “logK ± SEM 3. (FL quenching)” value [5]?
A: Its value is 5.76 ± 0.08.

Q: What about the “logK FL Quenching” value [5] of the same compound?
A: The value was 5.78 ± 0.02.

Q: What about the “logK ± SEM 1. (FL enhancement)” value [15] of the same compound?
A: The value was 5.83 ± 0.04.

Q: What about the “logK ± SEM 2. (FL enhancement)” value [15] of the same compound?
A: The value was 5.94 ± 0.16.

Q: What about the “logK ± SEM 3. (FL enhancement)” value [15] of the same compound?
A: Its value is 6.04 ± 0.11.

Q: What about the “logK FL Enhancement” value [15] of the same compound?
A: The value was 5.94 ± 0.06.

Q: What about the “logK Ultracentrifugation” value [16] of the same compound?
A: Its value is 5.73 ± 0.02.

Q: What about the “logK of complex with HSA” value [10] of the same compound?
A: Its value is 4.3.

Q: With CC1=C2C(=CO[C@H](C)[C@H]2C)C(O)=C(C(=O)O)C1=O [CIT, citrinin] as the compound, how does the “effect … of AGP” value [5] read?
A: The value was “no or only minor decreases”.

Q: Which “effect on fluorescence emission signal of LG” value [17] does the source give for CC(=O)OC[C@]12C[C@H](OC(=O)CC(C)C)C(C)=C[C@H]1O[C@@H]1[C@H](O)[C@@H](OC(C)=O)[C@@]2(C)[C@]12CO2 [T2, T-2 toxin] here?
A: The value was “minor increase”.

Q: What about the “effect … of AGP” value [5] of the same compound?
A: The value was “no or only minor decreases”.

Q: With C[C@H]1CCC[C@H](O)CCC/C=C/c2cc(O)cc(O)c2C(=O)O1 [α-ZEL, α-zearalenol] as the compound, how does the “binding constant (K) of mycotoxin–AGP complex” value [14] read?
A: The value was “approximately 3 × 10^5 L/mol”.

Q: And the “fold higher affinity to AGP compared to HSA” value [14]?
A: Its value is roughly 5 fold.

Q: What about the “logK CSN” value (casein (CSN, bovine) [1]) of the same compound?
A: Its value is 3.54 ± 0.01.

Q: What about the “logK LG” value ([2]; pH 6.8) of the same compound?
A: The value was 3.35 ± 0.03.

Q: And the “logK LA” value ([3]; pH 6.8)?
A: The value was 2.92 ± 0.06.

Q: And the “effect on fluorescence emission signal of CSN” value (casein (CSN, bovine) [13])?
A: Its value is “slight decreases”.

Q: What about the “quenching effect” value [4] of the same compound?
A: Its value is “slight”.

Q: And the “logK ± SEM 1. (FL quenching)” value [5]?
A: The value was 5.57 ± 0.07.

Q: And the “logK ± SEM 2. (FL quenching)” value [5]?
A: Its value is 5.67 ± 0.05.

Q: And the “logK ± SEM 3. (FL quenching)” value [5]?
A: Its value is 5.70 ± 0.06.

Q: And the “logK FL Quenching” value [5]?
A: The value was 5.65 ± 0.04.

Q: What about the “logK ± SEM 1. (FL enhancement)” value [15] of the same compound?
A: The value was 5.46 ± 0.06.

Q: And the “logK ± SEM 2. (FL enhancement)” value [15]?
A: Its value is 5.46 ± 0.08.

Q: And the “logK ± SEM 3. (FL enhancement)” value [15]?
A: The value was 5.62 ± 0.07.

Q: What about the “logK FL Enhancement” value [15] of the same compound?
A: The value was 5.51 ± 0.05.

Q: And the “logK Ultracentrifugation” value [16]?
A: Its value is 5.48 ± 0.07.

Q: And the “fold higher affinity … vs CSN” value [6]?
A: Its value is “approximately 20 fold”.

Q: And the “logK of complex with HSA” value [10]?
A: Its value is 4.7.

Q: And the “logK of ZEN–BSA and α-ZEL–BSA complexes” value [11]?
A: Its value is 4.5.

Q: With CC(=O)C1=C(O)[C@@H]2[C@H]3c4c[nH]c5cccc(c45)C[C@H]3C(C)(C)N2C1=O [CPA, cyclopiazonic acid] as the compound, how does the “effect … of AGP” value [5] read?
A: The value was “no or only minor decreases”.

Q: Which “effect … of AGP” value [5] does the source give for CCCC[C@@H](C)[C@@H](OC(=O)C[C@@H](CC(=O)O)C(=O)O)[C@H](C[C@@H](C)C[C@H](O)CCCC[C@@H](O)C[C@H](O)[C@H](C)N)OC(=O)C[C@@H](CC(=O)O)C(=O)O [FB1, fumonisin B1] here?
A: Its value is “no or only minor decreases”.

Q: With C[C@@H]1Cc2c(Cl)cc(C(=O)N[C@@H](Cc3ccccc3)C(=O)O)c(O)c2C(=O)O1 [OTA, ochratoxin A] as the compound, how does the “effect on fluorescence emission signal of CSN” value (casein (CSN, bovine) [13]) read?
A: The value was “slight decreases”.

Q: And the “quenching effect” value [4]?
A: Its value is “slight”.

Q: And the “effect … of AGP” value [5]?
A: Its value is “no or only minor decreases”.

Q: And the “logK of OTA–BSA and AOH–BSA complexes” value [11]?
A: Its value is 6.5.

Q: For Cc1cc(O)cc2oc(=O)c3c(O)cc(O)cc3c12 [AOH, alternariol], which “logK of OTA–BSA and AOH–BSA complexes” value [11] is on record?
A: Its value is 5.9.

Q: What does the source list for COc1cc2c(c3oc4cccc(O)c4c(=O)c13)[C@@H]1C=CO[C@@H]1O2 [STC, sterigmatocystin]?
A: effect of CSN on mycotoxin level (free fraction) in supernatant (casein (CSN, bovine) [1]): not influenced; effect of LG on mycotoxin level (free fraction) in supernatant ([2]; pH 6.8): not influenced; effect of LA on mycotoxin level (free fraction) in supernatant ([3]; pH 6.8): not influenced; effect on fluorescence emission signal of AGP [5]: larger, concentration-dependent decreases; K value of STC–HSA complex [10]: ≈ 2 × 10^4 L/mol; Kd [12]: 100 µM and 105 µM

Q: For CC1=C[C@H]2O[C@@H]3[C@H](O)C[C@](C)([C@@]2(CO)[C@H](O)C1=O)[C@]31CO1 [DON, deoxynivalenol], which “effect … of AGP” value [5] is on record?
A: The value was “no or only minor decreases”.

Q: With aflatoxin M1 [AFM1] as the compound, how does the “logK CSN” value (casein (CSN, bovine) [1]) read?
A: The value was 2.70 ± 0.08.

Q: And the “effect of LG on mycotoxin level (free fraction) in supernatant” value ([2]; pH 6.8)?
A: Its value is “did not show interactions”.

Q: And the “effect of LA on mycotoxin level (free fraction) in supernatant” value ([3]; pH 6.8)?
A: Its value is “did not show interactions”.

Q: And the “fold higher affinity … vs CSN” value [6]?
A: Its value is 10 fold.

Q: What about the “logK BSA” value ([6]; pH 6.8) of the same compound?
A: The value was 3.80 ± 0.03.

Q: Which “effect … of AGP” value [5] does the source give for O=C1C=C2C(=CCOC2O)O1 (centres unmarked) [PAT, patulin] here?
A: Its value is “no or only minor decreases”.
